Test results as given in patent publication US3975529A, “Diebenzo(B,E)thiepines” (Roussel-UCLAF, priority 1974, dated 1976).

Key:
Assay type in all cases: in vivo, mice
[1] = system: trembling and peripherical cholinergic manifestations provoked by tremorine; assay: Antitremorine activity as a function of time (Table I); settings: for antitremorine activity (in words): s.c. sesame oil, mice, Table I
Procedure: The antagonism of the test compounds to the trembling and peripherical cholinergic manifestations provoked by tremorine [Everett et al, Science, Vol. 124 (1956), p. 79] was studied on mice.
The products of Examples 2 and 3 were administered subcutaneously in sesame oil solution at doses of 200 and 400 mg/kg at a volume of 25 ml/kg to groups of 10 mice. The mice receied intraperitoneal injections of 20 mg/kg of tremorine either for 4 hours, one day, 2, 3 or 4 days after injection of the test product. […] The reactions (T-trembling; S-salivation; L-lacrymation) were noted 10, 20, 30 and 60 minutes after the tremorine injection and the percent of inhibition of the different reactions at the height of the effect after injection of tremorine were noted as a function of time.

[2] = system: antinociceptive activity of oxotremorine; assay: Antagonism of antinociceptive activity of oxotremorine, hot plate (Table III)
Procedure: The antinociceptive activity of oxotremorine [Leslie, J. Pharm. Pharmae., Vol. 2 (1969), p. 248-50] was determined on mice using the hot plate method of Eddy et al [J. Pharmacol. Vol. 107 (1953), p. 385] in the presence and absence of the test product presumed to be antagonistic. The product of Example 1 was administered subcutaneously in aqueous solution at doses of 50 and 100 mg/kg to groups of 10 mice and the products of Examples 2 to 5 were subcutaneously administered in sesame oil solution at doses of 200 and 400 mg/kg to groups of 10 mice. The mice then received a single intraperitoneal injection of 0.5 mg/kg of oxotremorine either 4 hours, 1 day, 2, 3, 4 or 7 days after the test product administration. For each time considerated, the mice were placed on the hot plate one half hour after the oxotremorine administration and the time for the appearance of nociceptive refluxes consistituted by simultaneous licking of the front paws was noted. The maximum time of staying on the hot plate was fixed at 45 seconds and the percentage of animals with a reaction time (RT) less than 40 seconds in spite of oxotremorine administration was determined.

[3] = system: trembling and peripherial cholinergic manifestations provoked by oxotremorine; assay: Antioxotremorine activity: antagonism to the trembling and peripherial cholinergic manifestations (Table II)
Procedure: The antagonism of the test products to the trembling and peripherial cholinergic manifestations provoked by oxotremorine [Cho et al, J. Biochem. Biophys. Res. Commun., Vol. 5, (196l) p. 276] was studied on mice. The product of Example 1 was administered subcutaneously in aqueous solution at doses of 50 and 100 mg/kg to groups of 10 mice and the products of Example 2 were subcutaneously administered in sesame oil solution at doses of 200 and 400 mg/kg to groups of 10 mice. Control animals received no vehicle. The mice then received a single intraperitoneal dose of 0.5 mg/kg of oxotremorine either 4 hours, 1 day, 2, 3, 4 or 7 days after the injection of the test product. The reaction of the animals as in Table I were recorded 5,10 and 15 minutes after the injection of oxotremorine and the percent of inhibition of the different reactions, at the height of the effect, after the oxotremorine injection was determined as a function of time.

[4] = 200 mg/kg s.c. sesame oil, after 4 h
[5] = 200 mg/kg s.c. sesame oil, after 1 d
[6] = 200 mg/kg s.c. sesame oil, after 2 d
[7] = 200 mg/kg s.c. sesame oil, after 3 d
[8] = 200 mg/kg s.c. sesame oil, after 4 d
[9] = 400 mg/kg s.c. sesame oil, after 4 h
[10] = 400 mg/kg s.c. sesame oil, after 1 d
[11] = 400 mg/kg s.c. sesame oil, after 2 d
[12] = 400 mg/kg s.c. sesame oil, after 3 d
[13] = 400 mg/kg s.c. sesame oil, after 4 d
[14] = 200 mg/kg s.c. sesame oil, after 7 d
[15] = 400 mg/kg s.c. sesame oil, after 7 d

CCC(=O)OCCN1C2CCC1CC(=C1c3ccccc3CSc3ccccc31)C2 (racemic) [Example 2, dl N-(β-propionyloxyethyl)-11-(3'-nortropylidene)-6,11-dihydrodibenzo(b,e)thiepine]
% inhibition of reactions: L (lacrymation) [1, 4]: 100%
% inhibition of reactions: S (salivation) [1, 4]: 90%
% inhibition of reactions: T (trembling) [1, 4]: 100%
% inhibition of reactions: L (lacrymation) [1, 5]: 100%
% inhibition of reactions: S (salivation) [1, 5]: 90%
% inhibition of reactions: T (trembling) [1, 5]: 90%
% inhibition of reactions: L (lacrymation) [1, 6]: 40%
% inhibition of reactions: S (salivation) [1, 6]: 0%
% inhibition of reactions: T (trembling) [1, 6]: 0%
% inhibition of reactions: L (lacrymation) [1, 7]: 100%
% inhibition of reactions: S (salivation) [1, 7]: 50%
% inhibition of reactions: T (trembling) [1, 7]: 20%
% inhibition of reactions: L (lacrymation) [1, 8]: 60%
% inhibition of reactions: S (salivation) [1, 8]: 0%
% inhibition of reactions: T (trembling) [1, 8]: 0%
% inhibition of reactions: L (lacrymation) [1, 9]: 100%
% inhibition of reactions: S (salivation) [1, 9]: 100%
% inhibition of reactions: T (trembling) [1, 9]: 100%
% inhibition of reactions: L (lacrymation) [1, 10]: 100%
% inhibition of reactions: S (salivation) [1, 10]: 100%
% inhibition of reactions: T (trembling) [1, 10]: 100%
% inhibition of reactions: L (lacrymation) [1, 11]: 100%
% inhibition of reactions: S (salivation) [1, 11]: 70%
% inhibition of reactions: T (trembling) [1, 11]: 40%
% inhibition of reactions: L (lacrymation) [1, 12]: 100%
% inhibition of reactions: S (salivation) [1, 12]: 20%
% inhibition of reactions: T (trembling) [1, 12]: 10%
% inhibition of reactions: L (lacrymation) [1, 13]: 60%
% inhibition of reactions: S (salivation) [1, 13]: 90%
% inhibition of reactions: T (trembling) [1, 13]: 50%
antitremorine activity (in words) [1]: prolonged antitremorine activity
% of animals with a RT less than 40 seconds [2, 4]: 100%
% of animals with a RT less than 40 seconds [2, 5]: 100%
% of animals with a RT less than 40 seconds [2, 6]: 90%
% of animals with a RT less than 40 seconds [2, 7]: 50%
% of animals with a RT less than 40 seconds [2, 8]: 60%
% of animals with a RT less than 40 seconds [2, 14]: 30%
% of animals with a RT less than 40 seconds [2, 9]: 100%
% of animals with a RT less than 40 seconds [2, 10]: 100%
% of animals with a RT less than 40 seconds [2, 11]: 100%
% of animals with a RT less than 40 seconds [2, 12]: 80%
% of animals with a RT less than 40 seconds [2, 13]: 90%
% of animals with a RT less than 40 seconds [2, 15]: 20%
% inhibition of reactions: L (lacrymation) [3, 4]: 100%
% inhibition of reactions: S (salivation) [3, 4]: 80%
% inhibition of reactions: T (trembling) [3, 4]: 80%
% inhibition of reactions: L (lacrymation) [3, 5]: 100%
% inhibition of reactions: S (salivation) [3, 5]: 90%
% inhibition of reactions: T (trembling) [3, 5]: 100%
% inhibition of reactions: L (lacrymation) [3, 6]: 70%
% inhibition of reactions: S (salivation) [3, 6]: 30%
% inhibition of reactions: T (trembling) [3, 6]: 30%
% inhibition of reactions: L (lacrymation) [3, 7]: 30%
% inhibition of reactions: S (salivation) [3, 7]: 10%
% inhibition of reactions: T (trembling) [3, 7]: 0%
% inhibition of reactions: L (lacrymation) [3, 8]: 11%
% inhibition of reactions: S (salivation) [3, 8]: 0%
% inhibition of reactions: L (lacrymation) [3, 14]: 10%
% inhibition of reactions: S (salivation) [3, 14]: 0%
% inhibition of reactions: T (trembling) [3, 14]: 0%
% inhibition of reactions: L (lacrymation) [3, 9]: 100%
% inhibition of reactions: S (salivation) [3, 9]: 100%
% inhibition of reactions: T (trembling) [3, 9]: 100%
% inhibition of reactions: L (lacrymation) [3, 10]: 100%
% inhibition of reactions: S (salivation) [3, 10]: 100%
% inhibition of reactions: T (trembling) [3, 10]: 100%
% inhibition of reactions: L (lacrymation) [3, 11]: 80%
% inhibition of reactions: S (salivation) [3, 11]: 60%
% inhibition of reactions: T (trembling) [3, 11]: 70%
% inhibition of reactions: L (lacrymation) [3, 12]: 10%
% inhibition of reactions: S (salivation) [3, 12]: 20%
% inhibition of reactions: T (trembling) [3, 12]: 0%
% inhibition of reactions: L (lacrymation) [3, 13]: 67%
% inhibition of reactions: S (salivation) [3, 13]: 20%
% inhibition of reactions: T (trembling) [3, 13]: 20%
% inhibition of reactions: L (lacrymation) [3, 15]: 20%
% inhibition of reactions: S (salivation) [3, 15]: 20%
% inhibition of reactions: T (trembling) [3, 15]: 10%
antioxotremorine activity (in words) ([3]; s.c. sesame oil, mice, Table II): prolonged antioxotremorine activity

CCCCCCC(=O)OCCN1C2CCC1CC(=C1c3ccccc3CSc3ccccc31)C2 (racemic) [Example 3, dl N-(β-heptanoyloxyethyl)-11-(3'-nortropylidene)-6,11-dihydrodibenzo(b,e)thiepine]
% inhibition of reactions: L (lacrymation) [1, 4]: 90%
% inhibition of reactions: S (salivation) [1, 4]: 30%
% inhibition of reactions: T (trembling) [1, 4]: 40%
% inhibition of reactions: L (lacrymation) [1, 5]: 30%
% inhibition of reactions: S (salivation) [1, 5]: 20%
% inhibition of reactions: T (trembling) [1, 5]: 0%
% inhibition of reactions: L (lacrymation) [1, 6]: 100%
% inhibition of reactions: S (salivation) [1, 6]: 10%
% inhibition of reactions: T (trembling) [1, 6]: 100%
% inhibition of reactions: L (lacrymation) [1, 7]: 20%
% inhibition of reactions: S (salivation) [1, 7]: 0%
% inhibition of reactions: L (lacrymation) [1, 8]: 0%
% inhibition of reactions: S (salivation) [1, 8]: 10%
% inhibition of reactions: T (trembling) [1, 8]: 20%
antitremorine activity (in words) [1]: prolonged antitremorine activity
% of animals with a RT less than 40 seconds [2, 4]: 50%
% of animals with a RT less than 40 seconds [2, 5]: 60%
% of animals with a RT less than 40 seconds [2, 6]: 50%
% of animals with a RT less than 40 seconds [2, 7]: 50%
% of animals with a RT less than 40 seconds [2, 8]: 40%
% of animals with a RT less than 40 seconds [2, 14]: 40%
% of animals with a RT less than 40 seconds [2, 9]: 70%
% of animals with a RT less than 40 seconds [2, 10]: 40%
% of animals with a RT less than 40 seconds [2, 11]: 50%
% of animals with a RT less than 40 seconds [2, 12]: 30%
% of animals with a RT less than 40 seconds [2, 13]: 40%
% of animals with a RT less than 40 seconds [2, 15]: 20%

CCCCCCCCCC(=O)OCCN1C2CCC1CC(=C1c3ccccc3CSc3ccccc31)C2 (racemic) [Example 4, dl N-(β-decanoyloxyethyl)-11-(3'-nortropylidene)-6,11-dihydrodibenzo(b,e)thiepine]
% of animals with a RT less than 40 seconds [2, 4]: 100%
% of animals with a RT less than 40 seconds [2, 5]: 30%
% of animals with a RT less than 40 seconds [2, 6]: 30%
% of animals with a RT less than 40 seconds [2, 7]: 10%
% of animals with a RT less than 40 seconds [2, 8]: 0%
% of animals with a RT less than 40 seconds [2, 14]: 20%
% of animals with a RT less than 40 seconds [2, 9]: 100%
% of animals with a RT less than 40 seconds [2, 10]: 60%
% of animals with a RT less than 40 seconds [2, 11]: 30%
% of animals with a RT less than 40 seconds [2, 12]: 30%
% of animals with a RT less than 40 seconds [2, 13]: 0%
% of animals with a RT less than 40 seconds [2, 15]: 30%

CCCCCCCCCCCCCCCC(=O)OCCN1C2CCC1CC(=C1c3ccccc3CSc3ccccc31)C2 (racemic) [Example 5, dl N-(β-palmitoyloxyethyl)-11-(3'-nortropylidene)-6,11-dihydrodibenzo(b,e)thiepine]
% of animals with a RT less than 40 seconds [2, 4]: 20%
% of animals with a RT less than 40 seconds [2, 5]: 30%
% of animals with a RT less than 40 seconds [2, 6]: 40%
% of animals with a RT less than 40 seconds [2, 7]: 10%
% of animals with a RT less than 40 seconds [2, 8]: 30%
% of animals with a RT less than 40 seconds [2, 14]: 30%
% of animals with a RT less than 40 seconds [2, 9]: 70%
% of animals with a RT less than 40 seconds [2, 10]: 60%
% of animals with a RT less than 40 seconds [2, 11]: 30%
% of animals with a RT less than 40 seconds [2, 12]: 20%
% of animals with a RT less than 40 seconds [2, 13]: 20%
% of animals with a RT less than 40 seconds [2, 15]: 30%

O=C1CCCN1CC#CCN1CCCC1 [Oxotremorine, oxotremorine, reference compound]
% of animals with a RT less than 40 seconds ([2]; oxotremorine controls, 0.5 mg/kg i.p., 4 h): 10%
% of animals with a RT less than 40 seconds ([2]; oxotremorine controls, 0.5 mg/kg i.p., 1 d): 10%
% of animals with a RT less than 40 seconds ([2]; oxotremorine controls, 0.5 mg/kg i.p., 2 d): 10%
% of animals with a RT less than 40 seconds ([2]; oxotremorine controls, 0.5 mg/kg i.p., 3 d): 10%
% of animals with a RT less than 40 seconds ([2]; oxotremorine controls, 0.5 mg/kg i.p., 4 d): 0%
% of animals with a RT less than 40 seconds ([2]; oxotremorine controls, 0.5 mg/kg i.p., 7 d): 0%
